Values of other authors as cited in patent US10188693B2, “Methods for treatment of atherosclerosis” (Stealth BioTherapeutics Corp, priority 2012, dated 2019).

Tests used:
[1] = tested on: spinal cord injury in rodents; settings: administered both pre- and post-injury; cited from earlier work
hepatitis C virus (HCV) = settings: in vitro model of HCV infection (alone and with interferon); cited from earlier work

In the case of `CC(C)c1c(C(=O)Nc2ccccc2)c(-c2ccccc2)c(-c2ccc(F)cc2)n1CC[C@@H](O)C[C@@H](O)CC(=O)O` [atorvastatin], the “effect on spinal cord injury, in words” value [1] is given as “promoting locomotion and tissue sparing, as well as reducing inflammation” and the “anti-HCV effect, in words” value (hepatitis C virus (HCV)) is given as “anti-HCV effect”.

For `O=C(O)C[C@H](O)C[C@H](O)/C=C/c1c(C2CC2)nc2ccccc2c1-c1ccc(F)cc1` [pitavastatin], the “anti-HCV effect, in words” value (hepatitis C virus (HCV)) is listed as “anti-HCV effect”.

In the case of `CC[C@H](C)C(=O)O[C@H]1C[C@@H](C)C=C2C=C[C@H](C)[C@H](CC[C@@H]3C[C@@H](O)CC(=O)O3)[C@H]21` [lovastatin], the “anti-HCV effect, in words” value (hepatitis C virus (HCV)) is listed as “anti-HCV effect”.
